According to patent US20120295920A1, “5-AMINO-4-HYDROXYPENTOYL AMIDES” (priority 2009, published 2012):
pEC50: −log10 of the molar value. Read-outs that look alike come from different tables or passages of the source.

Tests used:
[1] = tested on: HIV-1 Strain C (G048G/V, V082A); experiment: microbe, parasite or virus in culture; format: cell-based; conditions: clinical isolate Strain C; read-out: C EC50
Procedure: (§1) MT4-LTR-EGFP cells were obtained by transfecting MT4 cells with a selectable construct encompassing the sequences coding for the HIV long terminal repeat (LTR) as a promoter for the expression of enhanced green fluorescent protein (EGFP) and subsequent selection of permanently transfected cells.
(§2) The antiviral activity on different HIV-1 strains, was determined in a cell-based virus replication assay. Here MT4-LTR-EGFP cells (150,000 cells/ml) are infected (multiplicity of infection [MOI] of 0.0025) in the presence or absence of different inhibitor concentrations. Two methodologies for read-out were used, either quantification of GFP-fluoresence on day 3 post-infection, or quantification of cell-viability using rezazurin (as described by Fields, R. D., and M. V. Lancaster (1993) Am. Biotechnol. Lab. 11:48-50) on day 4 post infection.
(§3) In the following Table, Strains A, B, and C are clinical isolates that include the following protease inhibitor resistance mutations in the protease domain (background mutations are not mentioned).

[2] = tested on: HIV-1 Strain B (M046I, I050V); experiment: microbe, parasite or virus in culture; format: cell-based; conditions: clinical isolate Strain B; read-out: B EC50
Procedure: as §1, §2, §3

[3] = tested on: HIV-1 Strain A (M046I, I084V); experiment: microbe, parasite or virus in culture; format: cell-based; conditions: clinical isolate Strain A; read-out: A EC50
Procedure: as §1, §2, §3

HIV-1 IIIB = experiment: 50% HS-Rezazurin: antiviral assay in the presence of 50% human serum, MT-4 cells, resazurin cell viability; format: cell-based
Procedure: For the Antiviral assay in the presence of 50% human serum MT-4 cells were infected with HIV-1 IIIB at a MOI of 0.001 to 0.01 CCID50/cell in RPMI1640 medium. Following 1 h of incubation, cells were washed and plated into a 96-well plate containing serial dilutions of compound in the presence of 10% fetal calf serum (FCS), or 50% human serum. After 4 days incubation, the EC50 in the presence of 50% human serum was determined by a cell viability assay using resazurin.
The last column lists the results for the wild-type strain IIB in the presence of 50% human serum MT-4 cells.

HIV-1 wild-type strain = experiment: General antiviral assay, cell-based virus replication in MT4-LTR-EGFP cells, wild-type strain
Procedure: as §1, §2

mock-infected MT4 cells = experiment: General toxicity assay on mock-infected MT4 cells with CMV-EGFP reporter (CC50); format: cell-based
[4] = wild-type strain IIIB, MT4-LTR-EGFP cells
[5] = MT4LTR cells, read-out: TOX-MT4LTR (CC50)
[6] = mock-infected MT4 cells with CMV-EGFP reporter, read-out: TOX-MT4CMV (CC50)

Row | Compound | pEC50 [1] | pEC50 [2] | pEC50 [3] | pEC50 (HIV-1 IIIB) | pEC50 (HIV-1 wild-type strain; [4]) | CC50 (mock-infected MT4 cells; [5]) [nM] | CC50 (mock-infected MT4 cells; [6]) [nM] | pEC50 (HIV-1 wild-type strain; read-out: HIV-IIIB EC50)
1 | COC(=O)NC(C(=O)NC(Cc1ccc(-c2ccc(OC)nc2)cc1)C(O)CC(Cc1ccccc1F)C(=O)NC1CCCCC1O)C(C)(C)C (centres unmarked) [Compound 100] | 9.10 | 9.15 | 8.74 | 8.23 | 8.74 | > 32000 |  | 
2 | COC(=O)N[C@H](C(=O)N[C@@H](Cc1ccc(-c2ccc(OC)nc2)cc1)[C@@H](O)C[C@@H](Cc1ccccc1Cl)C(=O)N[C@H]1c2ccsc2CC[C@H]1O)C(C)(C)C [Compound 95] | 9.00 | 8.89 | 8.66 | 8.23 | 8.82 | 23000 |  | 
3 | COC(=O)NC(C(=O)NC(Cc1ccc(-c2cnc(OC)cn2)cc1)C(O)CC(Cc1ccccc1F)C(=O)NC1c2cc(Cl)ccc2OCC1O)C(C)(C)C (centres unmarked) [Compound 23] | 8.70 | 8.62 | 8.43 | 7.91 | 8.52 |  | 19000 | 
4 | COC(=O)N[C@H](C(=O)N[C@@H](Cc1ccc(-c2ccc(OC)nc2)cc1)[C@@H](O)C[C@@H](Cc1cccc(F)c1)C(=O)N[C@H]1c2ccc(F)cc2OC[C@H]1O)C(C)(C)C [Compound 85] | 8.96 | 8.89 | 8.52 | 7.76 | 8.54 | > 32000 | > 32000 | 
5 | COC(=O)N[C@H](C(=O)N[C@@H](Cc1ccc(-c2cccc(OC)n2)cc1)[C@@H](O)C[C@@H](Cc1ccccc1F)C(=O)N[C@H]1c2cc(Cl)ccc2OC[C@H]1O)C(C)(C)C [Compound 30] | 8.60 | 8.55 | 8.23 | 7.76 | 8.40 |  | > 32000 | 
6 | COC(=O)NC(C(=O)NC(Cc1ccc(-c2ccc(N(C)C)nc2)cc1)C(O)CC(Cc1ccccc1F)C(=O)NC1c2cc(Cl)ccc2OCC1O)C(C)(C)C (centres unmarked) [Compound 8] | 9.00 | 8.92 | 8.70 | 7.91 | 8.74 | > 49000 | > 32000 | 
7 | CCc1ncc(-c2ccc(CC(NC(=O)C(NC(=O)OC)C(C)(C)C)C(O)CC(Cc3ccccc3F)C(=O)NC3c4cc(Cl)ccc4OCC3O)cc2)s1 (centres unmarked) [Compound 14] | 8.89 | 8.68 | 8.46 | 7.61 | 8.52 |  | > 32000 | 
8 | COc1ccc(-c2ccc(C[C@H](NC(=O)O[C@H]3CO[C@H]4OCC[C@H]43)[C@@H](O)C[C@@H](Cc3ccccc3F)C(=O)N[C@H]3c4cc(F)ccc4OC[C@H]3O)cc2)cn1 [Compound 80] | 9.10 | 8.96 | 8.82 | 7.96 | 8.62 | > 32000 |  | 
9 | COC(=O)NC(C(=O)NC(Cc1ccc(-c2cc(C)nc(C3CC3)c2)cc1)C(O)CC(Cc1ccccc1F)C(=O)NC1c2cc(Cl)ccc2OCC1O)C(C)(C)C (centres unmarked) [Compound 21] | 8.44 | 8.49 | 8.42 | 7.46 | 8.21 |  | > 32000 | 
10 | COc1ccc(-c2ccc(CC(NC(=O)C(NC(=O)CN3CCCC3)C(C)(C)C)C(O)CC(Cc3ccccc3F)C(=O)NC3C(C)CCCC3O)cc2)cn1 (centres unmarked) [Compound 97] | 8.70 | 8.55 | 8.33 | 7.90 | 8.25 | > 32000 |  | 
11 | COC(=O)N[C@H](C(=O)N[C@@H](Cc1ccc(-c2ccc(OC)nc2)cc1)[C@@H](O)C[C@@H](Cc1cccc(F)c1)C(=O)N[C@H]1c2cccc(F)c2OC[C@H]1O)C(C)(C)C [Compound 40] | 9.10 | 9.00 | 8.80 | 7.95 | 8.62 | > 32000 | > 32000 | 
12 | COC(=O)N[C@H](C(=O)N[C@@H](Cc1ccc(-c2ccc(OC)nc2)cc1)[C@@H](O)C[C@@H](Cc1ccccc1F)C(=O)N[C@H]1c2cc(F)ccc2OC[C@H]1O)C(C)(C)C [Compound 59] |  | 9.22 | 9.05 | 8.24 | 8.92 | > 32000 |  | 
13 | COCCNC(=O)[C@@H](NC(=O)[C@H](Cc1ccccc1Cl)C[C@H](O)[C@H](Cc1ccc(-c2ccc(OC)nc2)cc1)NC(=O)[C@@H](NC(=O)OC)C(C)(C)C)C(C)(C)C [Compound 98] | 8.66 | 9.00 | 8.43 | 7.95 | 8.68 | > 32000 |  | 
14 | COc1ccc(-c2ccc(C[C@H](NC(=O)O[C@H]3CO[C@H]4OCC[C@H]43)[C@@H](O)C[C@@H](Cc3ccccc3F)C(=O)N[C@H]3[C@H](C)CCC[C@H]3O)cc2)cn1 [Compound 82] | 9.15 | 9.10 | 8.96 | 8.29 | 8.74 | > 27000 |  | 
15 | COC(=O)N[C@H](C(=O)N[C@@H](Cc1ccc(-c2ccc(N(C)C)nc2)cc1)[C@@H](O)C[C@@H](Cc1ccccc1F)C(=O)N[C@H]1c2cc(F)ccc2OC[C@H]1O)C(C)(C)C [Compound 33] | 9.05 | 9.00 | 8.82 | 8.01 | 8.60 |  | > 32000 | 
16 | COC(=O)N[C@H](C(=O)N[C@@H](Cc1ccc(-c2ccc(OC)nc2)cc1)[C@@H](O)C[C@@H](Cc1cccc(OC)c1)C(=O)N[C@H]1c2cc(Cl)ccc2OC[C@H]1O)C(C)(C)C [Compound 27] | 8.80 | 8.66 | 8.55 | 7.97 | 8.51 | > 32000 | > 32000 | 
17 | COc1ccc(-c2ccc(C[C@H](NC(=O)O[C@H]3CO[C@H]4OCC[C@H]43)[C@@H](O)C[C@@H](Cc3ccccc3Cl)C(=O)N[C@H]3c4cc(Cl)ccc4OC[C@H]3O)cc2)cn1 [Compound 78] | 9.05 | 8.85 | 8.72 | 7.97 | 8.68 | > 32000 |  | 
18 | CNC(=O)[C@@H](NC(=O)[C@H](Cc1ccccc1F)C[C@H](O)[C@H](Cc1ccc(-c2ccc(OC)nc2)cc1)NC(=O)[C@@H](NC(=O)OC)C(C)(C)C)C(C)(C)C [Compound 88] | 8.52 | 8.55 | 8.32 | 8.00 | 8.47 |  | > 32000 | 
19 | COC(=O)N[C@H](C(=O)N[C@@H](Cc1ccc(-c2ccc(N(C)C)nc2)cc1)[C@@H](O)C[C@@H](Cc1ccccc1F)C(=O)N[C@H]1[C@H](C)CCC[C@H]1O)C(C)(C)C [Compound 89] | 9.10 |  |  | 8.31 | 8.96 | > 32000 | > 32000 | 
20 | CN(C)c1ccc(-c2ccc(CC(NC(=O)C(NC(=O)CN3CCCC3)C(C)(C)C)C(O)CC(Cc3cccc(Cl)c3)C(=O)NC3c4cc(F)ccc4OCC3O)cc2)cn1 (centres unmarked) [Compound 9] | 8.43 | 8.18 |  | 7.50 | 8.06 |  | > 27000 | 
21 | CNC(=O)[C@@H](NC(=O)[C@H](Cc1ccccc1F)C[C@H](O)[C@H](Cc1ccc(-c2ccc(N(C)C)nc2)cc1)NC(=O)O[C@H]1CO[C@H]2OCC[C@H]21)C(C)(C)C [Compound 69] | 8.24 | 8.15 |  | 7.58 |  |  | > 32000 | 7.94
22 | COCCOC(=O)N[C@H](C(=O)N[C@@H](Cc1ccc(-c2ccc(OC)nc2)cc1)[C@@H](O)C[C@@H](Cc1ccccc1Cl)C(=O)N[C@H]1c2cc(F)ccc2OC[C@H]1O)C(C)(C)C [Compound 57] | 9.10 | 9.05 |  | 8.06 | 8.72 | > 32000 |  | 
23 | COC(=O)N[C@H](C(=O)N[C@@H](Cc1ccc(-c2cncc(OC)n2)cc1)[C@@H](O)C[C@@H](Cc1ccccc1F)C(=O)N[C@H]1c2cc(Cl)ccc2OC[C@H]1O)C(C)(C)C [Compound 24] | 8.77 | 8.72 |  | 7.79 | 8.48 |  | > 32000 | 
24 | CCOc1ccc(-c2ccc(C[C@H](NC(=O)[C@@H](NC(=O)OC)C(C)(C)C)[C@@H](O)C[C@@H](Cc3ccccc3F)C(=O)N[C@H]3c4cc(Cl)ccc4OC[C@H]3O)cc2)cn1 [Compound 44] | 8.70 | 8.66 |  | 7.86 | 8.49 | > 32000 |  | 
25 | COC(=O)NC(C(=O)NC(Cc1ccc(-c2csc(N(C)C)n2)cc1)C(O)CC(Cc1ccccc1F)C(=O)NC1c2cc(Cl)ccc2OCC1O)C(C)(C)C (centres unmarked) [Compound 20] | 8.57 |  | 8.13 | 7.95 | 8.51 |  | 6000 | 
